According to ChEMBL document CHEMBL5550094, “Design, synthesis and anti-necroptosis activity of fused heterocyclic MLKL inhibitors” (Bioorg Med Chem, 2024):
Active and inactive are the calls of the source. The calls are words filed in the database; no cut-off is given here.

How the values were obtained:
[1] = test system: HT-29; assay: Anti-necroptosis activity against TNFalpha/Smac mimetic/Z-VAD-fmk-induced human HT-29 cells by CellTiter luminescence cell viability assay; format: functional, cell-based
[2] = biological target: T1, Receptor-interacting serine/threonine-protein kinase 3 (Homo sapiens, UniProt Q9Y572); assay: Inhibition of RIPK3 phosphorylation in TNFalpha/Smac mimetic/Z-VAD-fmk-induced human HT-29 cells at 2 uM measured after 6 hrs by Western blot analysis; format: cell-based
Target sequence in this assay (Q9Y572 whole entry, looked up, the tested form may be a part): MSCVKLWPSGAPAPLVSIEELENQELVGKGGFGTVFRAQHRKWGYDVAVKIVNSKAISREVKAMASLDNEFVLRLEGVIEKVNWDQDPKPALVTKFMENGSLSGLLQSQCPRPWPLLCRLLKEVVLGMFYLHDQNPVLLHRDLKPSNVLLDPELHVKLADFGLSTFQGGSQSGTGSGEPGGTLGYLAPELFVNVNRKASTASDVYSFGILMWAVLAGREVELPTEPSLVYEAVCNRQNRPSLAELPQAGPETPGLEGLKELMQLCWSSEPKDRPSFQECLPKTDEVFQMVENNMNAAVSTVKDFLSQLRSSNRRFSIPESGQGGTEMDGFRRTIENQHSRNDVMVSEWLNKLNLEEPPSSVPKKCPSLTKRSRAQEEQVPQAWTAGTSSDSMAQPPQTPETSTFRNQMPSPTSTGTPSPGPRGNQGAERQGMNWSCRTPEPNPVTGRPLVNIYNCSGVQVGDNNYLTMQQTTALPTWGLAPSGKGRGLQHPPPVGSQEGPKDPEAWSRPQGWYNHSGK

[3] = biological target: T2, Mixed lineage kinase domain-like protein (Homo sapiens) (UniProt Q8NB16); assay: Inhibition of MLKL phosphorylation in TNFalpha/Smac mimetic/Z-VAD-fmk-induced human HT-29 cells at 2 uM measured after 6 hrs by Western blot analysis; format: cell-based
T2 sequence (whole entry): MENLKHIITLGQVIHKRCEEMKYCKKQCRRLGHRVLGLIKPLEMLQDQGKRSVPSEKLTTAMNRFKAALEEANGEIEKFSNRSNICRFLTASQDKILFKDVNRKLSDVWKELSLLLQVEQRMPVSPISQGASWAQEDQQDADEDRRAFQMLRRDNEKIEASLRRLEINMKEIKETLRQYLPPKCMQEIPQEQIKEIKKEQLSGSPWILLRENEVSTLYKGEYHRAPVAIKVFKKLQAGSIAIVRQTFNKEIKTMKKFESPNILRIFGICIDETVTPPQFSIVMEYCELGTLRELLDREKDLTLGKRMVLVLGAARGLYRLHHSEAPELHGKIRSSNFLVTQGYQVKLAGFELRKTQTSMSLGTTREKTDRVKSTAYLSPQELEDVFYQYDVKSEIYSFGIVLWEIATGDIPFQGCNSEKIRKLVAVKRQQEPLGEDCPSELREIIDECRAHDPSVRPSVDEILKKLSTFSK

[4] = test system: HT-29; assay: Anti-necroptosis activity against TNFalpha/Smac mimetic/Z-VAD-fmk-induced human HT-29 cells measured after 24 hrs by CellTiter-Glo assay; format: functional, cell-based; conditions: HT-29, 24 h
[5] = biological target: T1, Receptor-interacting serine/threonine-protein kinase 3; assay: Binding affinity to RIPK3 (unknown origin) assessed as dissociation constant by displacement assay
Target sequence in this assay (Q9Y572 whole entry, the tested form may be a part): as the sequence (Q9Y572 whole entry, looked up, the tested form may be a part) above

[6] = biological target: T3, Receptor-interacting serine/threonine-protein kinase 1 (Homo sapiens, UniProt Q13546); assay: Binding affinity to RIPK1 (unknown origin) assessed as dissociation constant by displacement assay
T3 sequence (Q13546 whole entry): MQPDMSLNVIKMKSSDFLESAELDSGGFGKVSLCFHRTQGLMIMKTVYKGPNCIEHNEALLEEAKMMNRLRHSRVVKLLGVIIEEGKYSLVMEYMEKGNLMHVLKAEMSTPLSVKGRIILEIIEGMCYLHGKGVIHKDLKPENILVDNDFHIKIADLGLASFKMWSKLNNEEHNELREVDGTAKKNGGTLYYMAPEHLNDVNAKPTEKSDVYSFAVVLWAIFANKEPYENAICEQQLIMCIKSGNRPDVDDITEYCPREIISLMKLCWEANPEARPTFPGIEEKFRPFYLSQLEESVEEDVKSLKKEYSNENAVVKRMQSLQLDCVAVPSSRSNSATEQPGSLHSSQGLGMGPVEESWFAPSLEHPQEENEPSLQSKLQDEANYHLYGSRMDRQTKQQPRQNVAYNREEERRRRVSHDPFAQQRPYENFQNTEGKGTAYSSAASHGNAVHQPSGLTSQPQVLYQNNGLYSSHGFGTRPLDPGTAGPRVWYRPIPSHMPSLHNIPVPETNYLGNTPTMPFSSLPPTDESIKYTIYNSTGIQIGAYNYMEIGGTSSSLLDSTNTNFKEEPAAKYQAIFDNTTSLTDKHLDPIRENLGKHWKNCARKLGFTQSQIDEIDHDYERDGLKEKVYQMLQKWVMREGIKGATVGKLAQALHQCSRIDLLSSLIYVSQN

[7] = Anti-necroptosis activity against TNF-alpha induced human Jurkat-FADD-/- cells pretreated for 30 mins followed by TNF-alpha addition and further incubated overnight by CellTiter-Glo 2.0 assay; format: functional, cell-based
[8] = test system: L929; assay: Anti-necroptosis activity against TNF-alpha/Z-VAD-FMK induced mouse L929 cells at 20 uM; format: functional, cell-based
[9] = biological target: T2, Mixed lineage kinase domain-like protein (Homo sapiens); assay: Covalent inhibition of MLKL in TNFalpha/Smac mimetic/Z-VAD-fmk-induced human HT-29 cells assessed as inhibition of necroptosis pretreated for 5 mins followed by washout and further treated with TNFalpha/Smac mimetic/Z-VAD-fmk and measured after 8 hrs by CellTiter luminescence cell viability assay; format: cell-based
[10] = biological target: T2, Mixed lineage kinase domain-like protein (Homo sapiens); assay: Covalent inhibition of MLKL in TNFalpha/Smac mimetic/Z-VAD-fmk-induced human HT-29 cells assessed as inhibition of necroptosis pretreated for 3 hrs followed by washout and further treated with TNFalpha/Smac mimetic/Z-VAD-fmk and measured after 8 hrs by CellTiter luminescence cell viability assay; format: cell-based
[11] = biological target: T2, Mixed lineage kinase domain-like protein (Homo sapiens); assay: Covalent inhibition of MLKL in TNFalpha/Smac mimetic/Z-VAD-fmk-induced human HT-29 cells assessed as inhibition of necroptosis pretreated for 1 hrs followed by washout and further treated with TNFalpha/Smac mimetic/Z-VAD-fmk and measured after 8 hrs by CellTiter luminescence cell viability assay; format: cell-based

SMILES | EC50 [1] [µM] | further results
O=C(/C=C/c1ccc([N+](=O)[O-])s1)Nc1ccc(S(=O)(=O)Nc2nc3c(F)cccc3s2)cc1 | 7.46 | –
O=C(/C=C/c1ccc([N+](=O)[O-])s1)Nc1ccc(S(=O)(=O)Nc2nc3ccc(OC(F)(F)F)cc3s2)cc1 | > 20 | –
COc1nccnc1NS(=O)(=O)c1ccc(NC(=O)/C=C/c2ccc([N+](=O)[O-])s2)cc1 | – | inhibition [2]: inactive; inhibition [3]: inactive; EC50 [4]: 0.447 µM
O=C(/C=C/c1ccc([N+](=O)[O-])s1)Nc1ccc(S(=O)(=O)Nc2nc3ccccc3s2)cc1 | 1.51 | –
O=C(/C=C/c1ccc([N+](=O)[O-])s1)Nc1ccc(S(=O)(=O)Nc2nc3c(Br)cccc3s2)cc1 | 7.35 | –
Nc1nccnc1C(=O)O[C@@H](C(=O)Nc1ccc(F)cc1)c1ccccc1 | – | Kd [5]: > 30 µM; Kd [6]: > 30 µM; IC50 [7]: > 40 µM
COc1nccnc1NS(=O)(=O)c1ccc(NC(=O)/C=C/c2ccc([N+](=O)[O-])o2)cc1 | 6.41 | –
Cc1cccc2sc(NS(=O)(=O)c3ccc(NC(=O)/C=C/c4ccc([N+](=O)[O-])s4)cc3)nc12 | 2.75 | –
O=C(/C=C/c1ccc([N+](=O)[O-])s1)Nc1ccc(S(=O)(=O)Nc2cnc3ccccc3c2)cc1 | 0.406 | –
O=C(/C=C/c1ccc([N+](=O)[O-])s1)Nc1ccc(S(=O)(=O)Nc2nc3cc(Cl)ccc3s2)cc1 | 16.2 | –
O=C(/C=C/c1ccc([N+](=O)[O-])s1)Nc1ccc(S(=O)(=O)Nc2ccnc3ccccc23)cc1 | 0.579 | –
C[C@@H](Oc1cc(-c2cnn(C3CCNCC3)c2)cnc1N)c1c(Cl)ccc(F)c1Cl [CRIZOTINIB] | – | IC50 [7]: > 40 µM
O=C(/C=C/c1ccc([N+](=O)[O-])s1)Nc1ccc(S(=O)(=O)Nc2nc3c(Cl)cccc3s2)cc1 | 6.23 | –
COc1nccnc1NS(=O)(=O)c1ccc(NC(=O)CCc2cccs2)cc1 | – | EC50 [4]: > 20 µM
O=C(/C=C/c1ccc([N+](=O)[O-])s1)Nc1ccc(S(=O)(=O)Nc2ncnc3ccccc23)cc1 | 0.526 | –
Cc1ccc2nc(NS(=O)(=O)c3ccc(NC(=O)/C=C/c4ccc([N+](=O)[O-])s4)cc3)sc2c1 | 2.91 | –
O=C(/C=C/c1ccc([N+](=O)[O-])s1)Nc1ccc(S(=O)(=O)Nc2nc3cc(Br)ccc3s2)cc1 | > 20 | –
COc1cccc2sc(NS(=O)(=O)c3ccc(NC(=O)/C=C/c4ccc([N+](=O)[O-])s4)cc3)nc12 | 0.596 | Activity [8]: inactive; inhibition [9]: inactive; inhibition [10]: Active; inhibition [2]: inactive; inhibition [3]: inactive; inhibition [11]: Active
O=C(/C=C/c1ccc([N+](=O)[O-])s1)Nc1ccc(S(=O)(=O)Nc2nc3cc(F)ccc3s2)cc1 | 6.75 | –

SMILES | EC50 [1] [µM] | further results
O=C(/C=C/c1ccc([N+](=O)[O-])s1)Nc1ccc(S(=O)(=O)Nc2ncc3ccccc3n2)cc1 | 0.148 | Activity [8]: inactive; inhibition [9]: inactive; inhibition [10]: Active; inhibition [2]: inactive; inhibition [3]: inactive; inhibition [11]: Active
O=C(/C=C/c1ccc([N+](=O)[O-])s1)Nc1ccc(S(=O)(=O)Nc2cnc3ccccc3n2)cc1 | 0.384 | –
O=C(/C=C/c1ccc([N+](=O)[O-])s1)Nc1ccc(S(=O)(=O)Nc2nc3ccc(Br)cc3s2)cc1 | > 20 | –
O=C(/C=C/c1ccc([N+](=O)[O-])s1)Nc1ccc(S(=O)(=O)Nc2nc3ccccc3o2)cc1 | 1.57 | –
O=C(/C=C/c1ccc([N+](=O)[O-])s1)Nc1ccc(S(=O)(=O)Nc2ccc3ccccc3n2)cc1 | 0.329 | –
COc1nccnc1NS(=O)(=O)c1ccc(NC(=O)/C=C/c2cccs2)cc1 | – | EC50 [4]: > 20 µM
COc1ccc2nc(NS(=O)(=O)c3ccc(NC(=O)/C=C/c4ccc([N+](=O)[O-])s4)cc3)sc2c1 | 5.08 | –
Cn1c(NS(=O)(=O)c2ccc(NC(=O)/C=C/c3ccc([N+](=O)[O-])s3)cc2)nc2ccccc21 | 0.478 | –
O=C(/C=C/c1ccc([N+](=O)[O-])s1)Nc1ccc(S(=O)(=O)Nc2cncc3ccccc23)cc1 | 0.427 | –
O=C(/C=C/c1ccc([N+](=O)[O-])s1)Nc1ccc(S(=O)(=O)Nc2ccc3nccnc3c2)cc1 | 0.48 | –
Cc1ccc2sc(NS(=O)(=O)c3ccc(NC(=O)/C=C/c4ccc([N+](=O)[O-])s4)cc3)nc2c1 | 2.58 | –
O=C(/C=C/c1ccc([N+](=O)[O-])s1)Nc1ccc(S(=O)(=O)Nc2nc3ccc(Cl)cc3s2)cc1 | 13.8 | –
O=C(/C=C/c1ccc([N+](=O)[O-])s1)Nc1ccc(S(=O)(=O)Nc2nc3ccc(F)cc3s2)cc1 | 5.15 | –
COc1ccc2sc(NS(=O)(=O)c3ccc(NC(=O)/C=C/c4ccc([N+](=O)[O-])s4)cc3)nc2c1 | 7.03 | –
O=C(/C=C/c1ccc([N+](=O)[O-])s1)Nc1ccc(S(=O)(=O)Nc2cc3ccccc3cn2)cc1 | 0.621 | –
COc1nccnc1NS(=O)(=O)c1ccc(NC(=O)CCc2ccc([N+](=O)[O-])s2)cc1 | – | EC50 [4]: > 20 µM
O=C(/C=C/c1ccc([N+](=O)[O-])s1)Nc1ccc(S(=O)(=O)Nc2nccc3ccccc23)cc1 | 0.734 | –
O=C(/C=C/c1ccc([N+](=O)[O-])s1)Nc1ccc(S(=O)(=O)Nc2nc3ccc(C(F)(F)F)cc3s2)cc1 | > 20 | –
